Measurements published in patent US12357695B2, “Peptides and nanoparticles for intracellular delivery of molecules” (AADIGEN, LLC, priority 2019, dated 2025).
Entries after “also recorded” stand apart in the source; their conditions may differ. Square brackets hold non-standard residues; d marks the D form. Primed or numbered codes have the meaning given here. PEG7′ = (PEG)7 moiety; Ava = NCCCCC(=O)O; βAla = NCCC(=O)O

Legend:
293T cells = assay: Cellular delivery of pGL4 plasmid DNA expressing Luciferase, luciferase expression at 72 hrs; type: cell-based; conditions: for reduction of efficiency / luciferase expression in the presence of serum: complexes incubated 3 hrs in 25% serum prior transfection; for reduction of efficiency / luciferase expression in the presence of serum / reduction of efficiency / luciferase expression in heparan sulfate: pGL4 plasmid; for reduction of efficiency / luciferase expression in heparan sulfate: complexes incubated 3 hrs with heparan sulfate prior transfection
Description: FIGS. 2A-2C show luciferase expression in 293T cells treated with ADGN-peptide/pGL4 plasmid DNA complexes. 293T cells cultured in 48 well plates were transfected with ADGN-peptide nanoparticles. ADGN-100, ADGN-106, ADGN-100RI, ADGN-106RI, ADGN-100 Stearyl, ADGN-Hydro1, ADGN-Hydro2, ADGN-Hydro3, ADGN-Hydro4, ADGN-Hydro5, and ADGN-Hydro6 containing 0.17 μg pGL4 plasmid DNA were formed in sterile water, diluted in sterile water containing 5% Sucrose. ADGN-peptide nanoparticles were evaluated prior (FIG. 2A) and after filtration with 0.45 μm PES filters (FIG. 2B). FIG. 2C impact of peGylated ADGN-100 on the transfection efficiency. pGL4 luc plasmid (0.15 μg) were associated to ADGN-100 solution containing 5 to 50% of ADGN-100-PEG or to ADGN-100PEG. ADGN/pGL4 plasmid DNA complexes were incubated for 3 hrs in the presence of either 25% serum or heparan sulfate prior transfection. Luciferase expression was monitored 72 hours post transfection and results were reported as RLU (luminescence):mg of protein.
Complex formation with plasmid DNA. The following protocols were used for the transfection of 2-5 106 Cells or Cells at confluency of about 70-80% cultured in 24 well plates. ADGN peptide/plasmid DNA pGL4 particles were prepared at a 20:1 molar ratio of ADGN-Peptide/pGL4. using (0.2 μg). PGL4 plasmid (0.15 μg) was diluted in 20 μl of sterile water (GIBCO) at room temperature. 10 μl Final Peptide Solution was added to obtain a total volume of 20 μl. The volume was adjusted to 50 μl with sterile water and was mixed gently with vortex 1 min low speed and incubated 30 min at room temperature. Then the volume was made up to 100 μl by adding sterile water containing 5% sucrose, and the solution was mixed gently with vortex 1 min low speed and incubate 5 min at 37° C. and then was proceeded to cell transfection.
(§1) Transfection protocol. Protocol is reported for 24 well plate format. Cells were cultured in Dulbecco's Modified Eagle's Medium (DMEM), supplemented with 2 mM glutamine, 1% antibiotics (streptomycin 10,000 μg/mL, penicillin, 10,000 IU/mL) and 10% (w/v) foetal calf serum (FCS), at 37° C. in a humidified atmosphere containing 5% CO2. 24 well plates seeded with 150,000 cells the day prior to transfection were grown to 50-60% confluence and set up to be at about 70% confluences at the time of transfection. Before transfection, cells were washed twice with DMEM. Cells were then overlaid with 0.1 ml of ADGN-peptide/cargo complex solution containing 0.25 μg mRNA, 0.15 μg plasmid DNA or 10-25 nM siRNA, mixed gently, and incubated for 10 min at 37° C. 0.2 mL of fresh DMEM, were added and cells were incubated for 20 min at 37° C. 1 mL of complete DMEM containing 15% FCS were then added in order to reach a final FCS concentration of 10%, without removing the overlay of ADGN-peptide/cargo complexes. Cells were returned to the incubator (37° C., 5% CO2) and 72 hrs post transfection.
ADGN-peptides were evaluated for cellular delivery of pGL4 plasmid DNA expressing Luciferase in 293T cells. Luc pGL4 plasmid (0.15 μg) in sterile water (GIBCO) were mixed with ADGN-100, ADGN-100RI, ADGN-106, ADGN-106RI, ADGN-100 Stearyl, ADGN-100Hydro1, ADGN-100Hydro2, ADGN-100Hydro4, ADGN-100Hydro3, ADGN-100Hydro5 and ADGN-100Hydro6. ADGN-peptide/mRNA complexes were filtered with 0.45 μm PES filter. In order to evaluate the stability of the ADGN/pGL4 plasmid complexes in high serum and cell culture conditions, the complexes were incubated for 3 hrs in the presence of either 25% serum or heparan sulfate prior transfection, then 293T cells were transfected and Luciferase expression was monitored at 72 hrs.

A375/Luc cells = assay: Cellular delivery of siRNA targeting Luciferase, luciferase silencing at 48 hrs; type: cell-based; conditions: 50% or 100% ADGN-100 PEG
Description: FIGS. 3A-3C show luciferase expression in A375/Luc cells treated with ADGN-peptide/siRNA complexes. A375/Luc cells cultured in 48 well plates were transfected with ADGN-peptide nanoparticles. ADGN-100, ADGN-106, ADGN-100RI, ADGN-106RI, ADGN-100 Stearyl, ADGN-Hydro1, ADGN-Hydro2, ADGN-Hydro3, ADGN-Hydro4, ADGN-Hydro5, ADGN-Hydro6 and ADGN-peptide/ADGN-100PEG 10% nanoparticles containing 10 nM or 25 nM siRNA were formed in sterile water, diluted in sterile water containing 5% Sucrose and filtered with 0.45 μm PES filters. FIG. 3C impact of peGylated ADGN-100 on the transfection efficiency. siRNA Luc (10 nM and 25 nM) were associated to ADGN-100 solution containing 5 to 50% of ADGN-100-PEG or to ADGN-100PEG. ADGN/siRNA complexes were incubated for 3 hrs in the presence of 25% serum prior transfection. Luciferase expression was monitored 48 hours post transfection and results were reported as RLU (luminescence):mg of protein.
Complex formation with siRNA. The following protocols were used for the transfection of 2-5 106 Cells or Cells at confluency of about 70-80% cultured in 24 well plates. ADGN peptide/siRNA Luc particles were prepared at a 20:1 molar ratio of ADGN-Peptide/pGL4. using 20 nM siRNA. The siRNA duplex (10 and 25 nM) was diluted in 20 μl of sterile water (GIBCO) at room temperature. 1.5 or 3 μl of a Final Peptide Solution (55 μM) was added to obtain a total volume of 20 μl. The volume was adjusted to 50 μl with sterile water and was mixed gently with vortex 1 min low speed and incubated 30 min at room temperature. Then the volume was made up to 100 μl by adding sterile water containing 5% sucrose, and the solution was mixed gently with vortex 1 min low speed and incubate 5 min at 37° C. and then was proceeded to cell transfection.
as §1
ADGN-peptides were evaluated for cellular delivery of siRNA duplex targeting Luciferase in A375/Luc cells. siRNA targeting luciferase (10 and 25 nM) in sterile water (GIBCO) were mixed with ADGN-100, ADGN-100RI, ADGN-106, ADGN-106RI, ADGN-100 Stearyl, ADGN-100Hydro1, ADGN-100Hydro2, ADGN-100Hydro4, ADGN-100Hydro3, ADGN-100Hydro5 and ADGN-100Hydro6. ADGN-peptide/siRNA complexes were filtered with 0.45 μm PES filter. In order to evaluate the stability of the ADGN/siRNA complexes in high serum conditions, the complexes were incubated for 3 hrs in the presence of 25% serum, then A375/Luc cells were transfected and Luciferase expression was monitored at 48 hrs.

mice or rat models = assay: Summary of cargo delivery to targeted organ (Table 1); type: in vivo; conditions: cargoes and route (IV, IM, SQ, NB) per peptide as listed in Table 1
Text: Table 1 lists a summary of cell-penetrating peptides that have been proven successful in delivering various cargo molecules to on or more targeted organ (e.g., by intravenous (IV), intramuscular (IM), or subcutaneous (SQ) administration, or intratraccheal instillation or nebulization (NB)) in mice or rat models.

Row | Substance | reduction of level of Luciferase expression (293T cells; 50% or 100% ADGN-100 PEG, pGL4 plasmid 0.15 μg) [%] | reduction of transfection efficiency (A375/Luc cells) [%] | reduction of efficiency / luciferase expression in the presence of serum (293T cells) | reduction of efficiency / luciferase expression in heparan sulfate (293T cells) | Targeted Organ (mice or rat models)
1 | Ac-(PEG)7-βA-KWRSALWRWRLWRVRSWSR-NH2 ({Ac-PEG7′}-[βAla]KWRSALWRWRLWRVRSWSR-NH2) [ADGN-100-PEG7] | 80 | 80 | – | – | –
2 | Ac-GYVS-Ava-KWRSALWRWRLWRVRSWSR-NH2 (Ac-GYVS[Ava]KWRSALWRWRLWRVRSWSR-NH2; SMILES CC(=O)NCC(=O)N[C@@H](Cc1ccc(O)cc1)C(=O)N[C@H](C(=O)N[C@@H](CO)C(=O)NCCCCC(=O)N[C@@H](CCCCN)C(=O)N[C@@H](Cc1c[nH]c2ccccc12)C(=O)N[C@@H](CCCNC(=N)N)C(=O)N[C@@H](CO)C(=O)N[C@@H](C)C(=O)N[C@@H](CC(C)C)C(=O)N[C@@H](Cc1c[nH]c2ccccc12)C(=O)N[C@@H](CCCNC(=N)N)C(=O)N[C@@H](Cc1c[nH]c2ccccc12)C(=O)N[C@@H](CCCNC(=N)N)C(=O)N[C@@H](CC(C)C)C(=O)N[C@@H](Cc1c[nH]c2ccccc12)C(=O)N[C@@H](CCCNC(=N)N)C(=O)N[C@H](C(=O)N[C@@H](CCCNC(=N)N)C(=O)N[C@@H](CO)C(=O)N[C@@H](Cc1c[nH]c2ccccc12)C(=O)N[C@@H](CO)C(=O)N[C@@H](CCCNC(=N)N)C(N)=O)C(C)C)C(C)C) [ADGN-100 hydro-4] | – | – | do not significantly improved transfection | do not significantly improved transfection | Liver/Lung/; also recorded: Kidney/Spleen
3 | Ac-YIGSR-Ava-KWRSALWRWRLWRVRSWSR-NH2 (Ac-YIGSR[Ava]KWRSALWRWRLWRVRSWSR-NH2; SMILES CC[C@H](C)[C@H](NC(=O)[C@H](Cc1ccc(O)cc1)NC(C)=O)C(=O)NCC(=O)N[C@@H](CO)C(=O)N[C@@H](CCCNC(=N)N)C(=O)NCCCCC(=O)N[C@@H](CCCCN)C(=O)N[C@@H](Cc1c[nH]c2ccccc12)C(=O)N[C@@H](CCCNC(=N)N)C(=O)N[C@@H](CO)C(=O)N[C@@H](C)C(=O)N[C@@H](CC(C)C)C(=O)N[C@@H](Cc1c[nH]c2ccccc12)C(=O)N[C@@H](CCCNC(=N)N)C(=O)N[C@@H](Cc1c[nH]c2ccccc12)C(=O)N[C@@H](CCCNC(=N)N)C(=O)N[C@@H](CC(C)C)C(=O)N[C@@H](Cc1c[nH]c2ccccc12)C(=O)N[C@@H](CCCNC(=N)N)C(=O)N[C@H](C(=O)N[C@@H](CCCNC(=N)N)C(=O)N[C@@H](CO)C(=O)N[C@@H](Cc1c[nH]c2ccccc12)C(=O)N[C@@H](CO)C(=O)N[C@@H](CCCNC(=N)N)C(N)=O)C(C)C) [ADGN-100-Hydro-3] | – | – | do not significantly improved transfection | do not significantly improved transfection | Tumor/Lung
